# Patent US20250170248A1, “SMARCA DEGRADERS AND USES THEREOF” (Kymera Therapeutics, Inc., priority 2021, published 2025)
# Key:
# Assay type in all cases: cell-based
# SMARCA2 [1] = target: T1, SMARCA2 (Homo sapiens, UniProt P51531); assay: SMARCA2 Western blot degradation in MV4-11 cells; set-up: SMARCA2/SMARCA4 protein degradation selectivity in MV4-11 cells; endogenous in cells; host or cells: MV4-11; settings: for Dmax: MV4-11, MV4-11 cells, read-out: SMARCA2 MSD MV411 degradation 24 h: average Dmax %; for Dmax / DC50 / SMARCA2 MSD MV411 degradation 24 h: average Dmax %: 24 h; for DC50 / Selectivity in MV411 / SMARCA2 MSD MV411 degradation 24 h: average Dmax %: MV4-11 cells; for DC50: read-out: SMARCA2 MSD MV411 degradation 24 h: Mean external-Abs DC50; for Selectivity in MV411: SMARCA2/4 selectivity
# SMARCA2 [2] = target: T1, SMARCA2; assay: MSD SMARCA2 degradation in A549 cell line; settings: for Dmax: A549, A549 cells; for Dmax / DC50: 24 h; for DC50 / SMARCA2 MSD A549 degradation 24 h: Average Dmax %: A549 cells; for DC50: read-out: SMARCA2 MSD A549 degradation 24 h: Average external-Abs DC50
# Method in brief: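 A549 cells treated 24 h with compound, 3-fold series from 1000 nM. Lysates captured on MSD plates and SMARCA2 quantified with anti-SMARCA2 and SULFO-TAG secondary antibodies (electrochemiluminescence). DC50 and Dmax (% degradation at 24 h) reported as letter bins.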
# SMARCA4 = target: T2, SMARCA4 (Homo sapiens, UniProt P51532); assay: SMARCA4 Western blot degradation in MV4-11 cells; settings: for Dmax: MV4-11, MV4-11 cells, read-out: SMARCA4 MSD MV411 degradation 24 h: average Dmax %; for Dmax / DC50: 24 h; for DC50 / SMARCA4 MSD MV411 degradation 24 h: average Dmax %: MV4-11 cells; for DC50: read-out: SMARCA4 MSD MV411 degradation 24 h: Mean external-Abs DC50
# T2 construct: SMARCA2/SMARCA4 protein degradation selectivity in MV4-11 cells; endogenous in cells; host or cells: MV4-11
# Method in brief: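 24 h compound exposure, MV4-11; RIPA lysates → SDS-PAGE → NC membrane; anti-SMARCA2/BRM, anti-BRG1, β-actin loading control; LI-COR fluorescence read. DC50 and Dmax at 24 h reported as letter bins.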
# T1 sequence (P51531 whole entry): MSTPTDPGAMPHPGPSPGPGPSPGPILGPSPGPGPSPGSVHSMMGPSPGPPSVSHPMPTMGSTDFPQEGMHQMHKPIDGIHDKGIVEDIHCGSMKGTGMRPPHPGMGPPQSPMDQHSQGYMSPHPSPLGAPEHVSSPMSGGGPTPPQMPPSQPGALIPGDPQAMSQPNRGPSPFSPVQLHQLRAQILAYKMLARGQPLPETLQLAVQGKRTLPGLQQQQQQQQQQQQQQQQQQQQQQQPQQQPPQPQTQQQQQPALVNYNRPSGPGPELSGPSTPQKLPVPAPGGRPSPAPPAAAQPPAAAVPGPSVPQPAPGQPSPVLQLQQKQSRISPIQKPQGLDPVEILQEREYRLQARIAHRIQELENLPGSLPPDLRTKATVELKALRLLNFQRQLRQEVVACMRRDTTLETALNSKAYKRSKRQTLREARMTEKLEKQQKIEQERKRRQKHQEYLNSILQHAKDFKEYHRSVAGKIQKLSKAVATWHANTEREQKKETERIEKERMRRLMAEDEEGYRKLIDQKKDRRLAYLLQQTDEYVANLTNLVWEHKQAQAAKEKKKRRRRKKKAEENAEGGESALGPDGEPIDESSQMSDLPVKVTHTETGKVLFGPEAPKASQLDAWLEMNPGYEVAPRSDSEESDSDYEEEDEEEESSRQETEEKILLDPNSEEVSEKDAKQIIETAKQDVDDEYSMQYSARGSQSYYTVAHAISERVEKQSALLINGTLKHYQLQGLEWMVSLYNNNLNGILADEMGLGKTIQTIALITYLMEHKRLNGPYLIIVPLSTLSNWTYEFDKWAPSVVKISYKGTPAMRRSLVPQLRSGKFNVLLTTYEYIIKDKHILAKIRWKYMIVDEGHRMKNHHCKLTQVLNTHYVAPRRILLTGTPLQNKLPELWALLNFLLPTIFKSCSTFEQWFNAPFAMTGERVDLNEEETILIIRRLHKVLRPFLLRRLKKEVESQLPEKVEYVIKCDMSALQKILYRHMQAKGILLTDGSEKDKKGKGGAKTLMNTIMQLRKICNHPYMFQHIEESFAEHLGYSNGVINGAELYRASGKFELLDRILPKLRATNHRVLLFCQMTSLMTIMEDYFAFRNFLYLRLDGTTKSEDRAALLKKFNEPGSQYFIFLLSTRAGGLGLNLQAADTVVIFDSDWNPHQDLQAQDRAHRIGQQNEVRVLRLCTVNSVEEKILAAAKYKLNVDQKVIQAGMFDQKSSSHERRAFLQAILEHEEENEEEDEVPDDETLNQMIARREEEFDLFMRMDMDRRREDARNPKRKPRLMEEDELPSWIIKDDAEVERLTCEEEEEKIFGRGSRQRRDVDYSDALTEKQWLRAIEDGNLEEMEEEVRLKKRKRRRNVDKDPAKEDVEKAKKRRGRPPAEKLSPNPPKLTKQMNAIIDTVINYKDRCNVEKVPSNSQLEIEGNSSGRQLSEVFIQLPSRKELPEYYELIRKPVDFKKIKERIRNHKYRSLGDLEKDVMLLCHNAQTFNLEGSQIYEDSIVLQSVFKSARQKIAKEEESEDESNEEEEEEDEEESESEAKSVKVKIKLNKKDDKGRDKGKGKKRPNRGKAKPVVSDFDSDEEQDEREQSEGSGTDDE
# T2 sequence (P51532 whole entry): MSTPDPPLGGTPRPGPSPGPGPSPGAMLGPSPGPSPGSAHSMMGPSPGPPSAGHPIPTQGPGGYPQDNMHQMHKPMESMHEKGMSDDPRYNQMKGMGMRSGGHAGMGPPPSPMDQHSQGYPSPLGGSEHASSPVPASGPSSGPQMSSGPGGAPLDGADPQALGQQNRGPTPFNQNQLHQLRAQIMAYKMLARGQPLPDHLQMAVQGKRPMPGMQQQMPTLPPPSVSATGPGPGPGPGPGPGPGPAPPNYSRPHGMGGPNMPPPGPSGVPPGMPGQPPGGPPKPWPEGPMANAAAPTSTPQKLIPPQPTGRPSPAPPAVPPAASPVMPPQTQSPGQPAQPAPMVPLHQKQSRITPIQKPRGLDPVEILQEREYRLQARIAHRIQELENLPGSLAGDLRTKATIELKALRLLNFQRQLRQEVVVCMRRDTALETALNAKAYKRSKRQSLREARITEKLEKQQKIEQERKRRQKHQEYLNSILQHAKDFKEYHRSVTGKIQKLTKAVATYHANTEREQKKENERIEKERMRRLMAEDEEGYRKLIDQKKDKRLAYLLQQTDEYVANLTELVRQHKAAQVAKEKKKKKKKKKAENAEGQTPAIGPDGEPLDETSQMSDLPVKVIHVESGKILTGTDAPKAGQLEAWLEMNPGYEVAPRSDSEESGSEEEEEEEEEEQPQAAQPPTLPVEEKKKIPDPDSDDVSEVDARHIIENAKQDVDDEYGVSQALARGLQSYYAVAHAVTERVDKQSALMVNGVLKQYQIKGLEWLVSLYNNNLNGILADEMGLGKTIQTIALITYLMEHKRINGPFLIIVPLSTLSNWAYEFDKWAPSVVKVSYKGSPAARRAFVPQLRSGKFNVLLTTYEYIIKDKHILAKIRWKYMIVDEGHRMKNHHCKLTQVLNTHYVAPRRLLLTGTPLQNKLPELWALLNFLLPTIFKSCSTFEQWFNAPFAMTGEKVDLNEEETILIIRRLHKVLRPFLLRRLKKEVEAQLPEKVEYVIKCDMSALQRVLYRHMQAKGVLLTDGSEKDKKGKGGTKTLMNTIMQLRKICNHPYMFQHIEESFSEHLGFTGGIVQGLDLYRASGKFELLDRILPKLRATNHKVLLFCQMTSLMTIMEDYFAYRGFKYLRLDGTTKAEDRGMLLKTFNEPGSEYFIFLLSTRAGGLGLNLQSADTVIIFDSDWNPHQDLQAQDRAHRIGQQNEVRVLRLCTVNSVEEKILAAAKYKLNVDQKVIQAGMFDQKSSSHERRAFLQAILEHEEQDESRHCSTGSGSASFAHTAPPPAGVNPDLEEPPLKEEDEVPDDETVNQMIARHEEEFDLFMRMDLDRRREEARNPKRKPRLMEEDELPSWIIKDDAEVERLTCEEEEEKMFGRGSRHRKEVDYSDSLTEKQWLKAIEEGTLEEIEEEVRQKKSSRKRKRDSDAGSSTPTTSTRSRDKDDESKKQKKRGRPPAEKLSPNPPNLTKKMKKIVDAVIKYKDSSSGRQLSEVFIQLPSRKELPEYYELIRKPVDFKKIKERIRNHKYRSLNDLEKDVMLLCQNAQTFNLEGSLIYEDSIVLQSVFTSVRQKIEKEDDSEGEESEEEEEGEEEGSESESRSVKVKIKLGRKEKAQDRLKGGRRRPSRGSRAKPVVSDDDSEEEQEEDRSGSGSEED
Compound,Dmax (SMARCA2 [1]),DC50 (SMARCA2 [1]),Selectivity in MV411 (SMARCA2 [1]),Dmax (SMARCA2 [2]),DC50 (SMARCA2 [2]),Dmax (SMARCA4),DC50 (SMARCA4),SMARCA2 MSD MV411 degradation 24 h: average Dmax % (SMARCA2 [1]),SMARCA2 MSD A549 degradation 24 h: Average Dmax % (SMARCA2 [2]),SMARCA4 MSD MV411 degradation 24 h: average Dmax % (SMARCA4)
"Cc1ncsc1-c1ccc(CNC(=O)[C@@H]2C[C@@H](O)CN2C(=O)[C@@H](NC(=O)C2(F)CC2)C(C)(C)C)c(O[C@H]2CC[C@@H](N3CCC(c4cnc(N5CCc6[nH]c7nnc(-c8ccccc8O)cc7c6[C@@H]5C)nc4)CC3)CC2)c1 (single isomer, unassigned) [I-34]",< 50%,10 to 100 nM,B (B (>100-500 fold)),70 to 90%,> 100 nM,50 to 70%,> 100 nM,,,
"C#CCOc1cc(C(C(=O)N2C[C@H](O)C[C@H]2C(=O)NCc2ccc(-c3scnc3C)cc2O[C@H]2CC[C@@H](N3CCC(c4cnc(N5CCc6[nH]c7nnc(-c8ccccc8O)cc7c6[C@H]5C)nc4)CC3)CC2)C(C)C)on1 (single isomer, unassigned) [I-37]",> 90%,< 1 nM,D (D (<10 fold)),> 90%,< 10 nM,> 90%,< 1 nM,,,
"C#CCOc1cc(C(C(=O)N2C[C@H](O)C[C@H]2C(=O)NCc2ccc(-c3scnc3C)cc2O[C@H]2CC[C@H](N3CCC(c4cnc(N5CCc6[nH]c7nnc(-c8ccccc8O)cc7c6[C@H]5C)nc4)CC3)CC2)C(C)C)on1 (single isomer, unassigned) [I-38]",> 90%,< 1 nM,C (C (10-100 fold)),> 90%,10 to 50 nM,> 90%,10 to 100 nM,,,
"C#CCOc1cc(C(C(=O)N2C[C@H](O)C[C@H]2C(=O)NCc2ccc(-c3scnc3C)cc2O[C@H]2CC[C@H](N3CCC(c4cnc(N5CCc6[nH]c7nnc(-c8ccccc8O)cc7c6[C@@H]5C)nc4)CC3)CC2)C(C)C)on1 (single isomer, unassigned) [I-40]",70 to 90%,10 to 100 nM,D (D (<10 fold)),70 to 90%,> 100 nM,70 to 90%,> 100 nM,,,
"Cc1ncsc1-c1ccc(CNC(=O)[C@@H]2C[C@@H](O)CN2C(=O)C(c2cc(OCCN3CCC(N4CCC(c5cnc(N6CCc7[nH]c8nnc(-c9ccccc9O)cc8c7[C@@H]6C)nc5)CC4)CC3)no2)C(C)C)cc1 (single isomer, unassigned) [I-41]",> 90%,< 1 nM,D (D (<10 fold)),70 to 90%,50 to 100 nM,> 90%,10 to 100 nM,,,
"Cc1ncsc1-c1ccc(CNC(=O)[C@@H]2C[C@@H](O)CN2C(=O)[C@@H](NC(=O)C2(F)CC2)C(C)(C)C)c(O[C@H]2CC[C@H](N3CCC(N4CCC(c5cnc(N6CCc7[nH]c8nnc(-c9ccccc9O)cc8c7[C@@H]6C)nc5)CC4)CC3)CC2)c1 (single isomer, unassigned) [I-47]",> 90%,1 to 10 nM,D (D (<10 fold)),> 90%,> 100 nM,> 90%,1 to 10 nM,,,
"Cc1ncsc1-c1ccc(CNC(=O)[C@@H]2C[C@@H](O)CN2C(=O)[C@@H](NC(=O)C2(F)CC2)C(C)(C)C)c(O[C@H]2CC[C@@H](N3CCC(N4CCC(c5cnc(N6CCc7[nH]c8nnc(-c9ccccc9O)cc8c7[C@@H]6C)nc5)CC4)CC3)CC2)c1 (single isomer, unassigned) [I-48]",50 to 70%,10 to 100 nM,C (C (10-100 fold)),70 to 90%,> 100 nM,> 90%,> 100 nM,,,
"Cc1ncsc1-c1ccc(CNC(=O)[C@@H]2C[C@@H](O)CN2C(=O)[C@@H](NC(=O)C2(F)CC2)C(C)(C)C)c(OCCCCN2CCC(c3cnc(N4CCN5c6cc(-c7ccccc7O)nnc6NC[C@H]5C4)nc3)CC2)c1 (single isomer, unassigned) [I-49]",> 90%,< 1 nM,C (C (10-100 fold)),> 90%,10 to 50 nM,> 90%,1 to 10 nM,,,
"Cc1ncsc1-c1ccc(CNC(=O)[C@@H]2C[C@@H](O)CN2C(=O)C(c2cc(OCCCN3CCC(c4cnc(N5CCN6c7cc(-c8ccccc8O)nnc7NC[C@H]6C5)nc4)CC3)no2)C(C)C)cc1 (single isomer, unassigned) [I-53]",> 90%,< 1 nM,D (D (<10 fold)),> 90%,10 to 50 nM,> 90%,1 to 10 nM,,,
"Cc1ncsc1-c1ccc(CNC(=O)[C@@H]2C[C@@H](O)CN2C(=O)[C@@H](NC(=O)N2CC3(CCC(N4CCC(c5cnc(N6CCc7[nH]c8nnc(-c9ccccc9O)cc8c7[C@@H]6C)nc5)CC4)CC3)C2)C(C)(C)C)cc1 (single isomer, unassigned) [I-63]",70 to 90%,10 to 100 nM,C (C (10-100 fold)),> 90%,10 to 50 nM,50 to 70%,> 100 nM,,,
"C#Cc1ccc(CNC(=O)[C@@H]2C[C@@H](O)CN2C(=O)[C@@H](NC(=O)N2CC3(CC(N4CCC(c5cnc(N6CCc7[nH]c8nnc(-c9ccccc9O)cc8c7[C@H]6C)nc5)CC4)C3)C2)C(C)(C)C)cc1 (single isomer, unassigned) [I-73]",> 90%,1 to 10 nM,C (C (10-100 fold)),> 90%,< 10 nM,70 to 90%,10 to 100 nM,,,
"Cc1ncsc1-c1ccc(CNC(=O)[C@@H]2C[C@@H](O)CN2C(=O)[C@@H](NC(=O)[C@H]2CC3(C2)C[C@H](N2CCN(c4cnc(N5CCc6[nH]c7nnc(-c8ccccc8O)cc7c6[C@H]5C)nc4)CC2)C3)C(C)(C)C)cc1 (single isomer, unassigned) [I-76]",70 to 90%,1 to 10 nM,C (C (10-100 fold)),> 90%,10 to 50 nM,50 to 70%,> 100 nM,,,
"Cc1ncsc1-c1ccc(CNC(=O)[C@@H]2C[C@@H](O)CN2C(=O)[C@@H](NC(=O)[C@H]2CC3(C2)C[C@H](N2CCN(c4cnc(N5CCc6[nH]c7nnc(-c8ccccc8O)cc7c6[C@H]5C)nc4)CC2)C3)C(C)(C)C)cc1 (single isomer, unassigned) [I-77]",,1 to 10 nM,C (C (10-100 fold)),,10 to 50 nM,,> 100 nM,B (B (>70-90% degradation)),A (A (>90% degradation)),D (D (<50% degradation))
"Cc1ncsc1-c1ccc(CNC(=O)[C@@H]2C[C@@H](O)CN2C(=O)[C@@H](NC(=O)[C@H]2CC3(CC[C@H](N4CCN(c5cnc(N6CCc7[nH]c8nnc(-c9ccccc9O)cc8c7[C@H]6C)nc5)CC4)CC3)C2)C(C)(C)C)cc1 (single isomer, unassigned) [I-78]",70 to 90%,10 to 100 nM,B (B (>100-500 fold)),> 90%,10 to 50 nM,< 50%,> 100 nM,,,
"Cc1ncsc1-c1ccc(CNC(=O)[C@@H]2C[C@@H](O)CN2C(=O)[C@@H](NC(=O)[C@H]2CC3(CC[C@H](N4CCN(c5cnc(N6CCc7[nH]c8nnc(-c9ccccc9O)cc8c7[C@H]6C)nc5)CC4)CC3)C2)C(C)(C)C)cc1 (single isomer, unassigned) [I-79]",,10 to 100 nM,C (C (10-100 fold)),,> 100 nM,,> 100 nM,B (B (>70-90% degradation)),A (A (>90% degradation)),D (D (<50% degradation))
"Cc1ncsc1-c1ccc(CNC(=O)[C@@H]2C[C@@H](O)CN2C(=O)[C@@H](NC(=O)[C@H]2CC3(CC[C@H](N4CCN(c5ccnc(N6CCc7[nH]c8nnc(-c9ccccc9O)cc8c7[C@H]6C)n5)CC4)CC3)C2)C(C)(C)C)cc1 (single isomer, unassigned) [I-81]",,1 to 10 nM,C (C (10-100 fold)),,10 to 50 nM,,10 to 100 nM,A (A (>90% degradation)),A (A (>90% degradation)),B (B (>70-90% degradation))
"Cc1ncsc1-c1ccc([C@H](C)NC(=O)[C@@H]2C[C@@H](O)CN2C(=O)[C@@H](NC(=O)Cc2ccc(CCCC(=O)N3CCN4c5cc(-c6ccccc6O)nnc5NC[C@H]4C3)cc2)C(C)(C)C)cc1 (single isomer, unassigned) [I-83]",> 90%,1 to 10 nM,C (C (10-100 fold)),70 to 90%,50 to 100 nM,> 90%,10 to 100 nM,,,
